The text below walks through data of patent US20260308186A1, “STAT DEGRADERS AND USES THEREOF” (Recludix Pharma, Inc., priority 2023, published 2026).

In one assay the target is T1, STAT3 (Homo sapiens, UniProt P40763).
T1 construct: Recombinant STAT3 protein (STAT3(G127-1722))
The assay can be described thus: STAT3 Fluorescence Polarization (FP) Assay. In kind it is binding. For orientation: Fluorescence polarisation rises when a labelled molecule tumbles more slowly, as on binding a larger partner.

A further assay has as its target T2, STAT6 (Homo sapiens, UniProt P42226).
T2 construct: Recombinant STAT6 protein (STAT6(W123-T658))
T2 sequence (P42226 123-658): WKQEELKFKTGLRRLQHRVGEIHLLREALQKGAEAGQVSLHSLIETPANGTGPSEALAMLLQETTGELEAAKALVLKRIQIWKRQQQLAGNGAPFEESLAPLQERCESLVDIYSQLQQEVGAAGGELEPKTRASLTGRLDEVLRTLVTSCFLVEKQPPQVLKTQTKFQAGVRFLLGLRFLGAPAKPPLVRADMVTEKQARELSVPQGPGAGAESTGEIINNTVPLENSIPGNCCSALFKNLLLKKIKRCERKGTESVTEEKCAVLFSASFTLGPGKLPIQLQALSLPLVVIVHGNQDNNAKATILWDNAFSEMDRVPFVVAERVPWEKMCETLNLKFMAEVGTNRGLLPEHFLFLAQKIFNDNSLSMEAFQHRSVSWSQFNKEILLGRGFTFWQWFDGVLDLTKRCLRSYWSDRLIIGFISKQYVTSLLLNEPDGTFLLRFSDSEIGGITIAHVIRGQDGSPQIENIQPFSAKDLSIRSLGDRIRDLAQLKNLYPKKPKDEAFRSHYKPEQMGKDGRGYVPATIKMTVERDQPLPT
The assay can be described thus: STAT6 Fluorescence Polarization (FP) Assay. The class given is binding. Summed up: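 STAT6(W123-T658) at 250 nM plus 2 nM 5-FAM phosphotyrosine peptide probe in HEPES pH 7.4 buffer with 2 mM DTT, 1% DMSO final. Polarization read after 45 min at room temperature. IC50 from nonlinear regression of mP against log concentration.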

The next assay deals with T3, pSTAT6 (Homo sapiens, UniProt P42226).
T3 construct: pY641-STAT6 MSD read-out
T3 sequence (P42226 1-847): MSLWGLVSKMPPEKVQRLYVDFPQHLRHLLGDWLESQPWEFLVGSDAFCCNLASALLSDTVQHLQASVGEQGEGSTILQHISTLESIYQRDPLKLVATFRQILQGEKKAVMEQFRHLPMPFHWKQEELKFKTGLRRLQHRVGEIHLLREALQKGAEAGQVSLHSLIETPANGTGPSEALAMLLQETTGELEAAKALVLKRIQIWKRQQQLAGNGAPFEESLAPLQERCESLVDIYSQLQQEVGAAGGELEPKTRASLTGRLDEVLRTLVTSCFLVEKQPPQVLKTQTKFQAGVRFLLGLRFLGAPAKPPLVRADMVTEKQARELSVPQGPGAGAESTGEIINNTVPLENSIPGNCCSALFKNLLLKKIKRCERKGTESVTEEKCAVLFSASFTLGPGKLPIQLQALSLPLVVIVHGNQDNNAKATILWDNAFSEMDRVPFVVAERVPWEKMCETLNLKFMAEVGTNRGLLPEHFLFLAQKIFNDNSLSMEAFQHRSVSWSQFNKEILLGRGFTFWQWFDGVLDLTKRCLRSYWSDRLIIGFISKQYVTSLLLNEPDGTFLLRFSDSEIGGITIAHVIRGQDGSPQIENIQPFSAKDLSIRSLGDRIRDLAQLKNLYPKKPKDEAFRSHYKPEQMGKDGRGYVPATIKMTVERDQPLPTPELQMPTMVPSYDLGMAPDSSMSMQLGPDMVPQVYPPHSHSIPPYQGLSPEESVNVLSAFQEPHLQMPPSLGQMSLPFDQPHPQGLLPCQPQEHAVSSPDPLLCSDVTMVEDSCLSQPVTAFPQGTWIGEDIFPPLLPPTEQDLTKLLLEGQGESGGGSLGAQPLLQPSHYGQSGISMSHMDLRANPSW
The assay can be described thus: MSD-pSTAT-PBMC Assay, pSTAT6 (IL-4 stimulated PBMC). In kind it is cell-based. Summed up:
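Human PBMC were recovered overnight, treated 3 h with compound, then stimulated for 10 min with 10 ng/mL IL-6 (pSTAT3) or 1 ng/mL IL-4 (pSTAT6). Lysates were read by MSD sandwich immunoassay, with total STAT capture and pY705-STAT3 or pY641-STAT6 detection. Signal minus unstimulated wells was normalized to DMSO, and IC50 came from a variable-slope fit.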

pIC50: −log10 of the molar value. Read-outs that look alike come from different tables or passages of the source.

T1 sequence (P40763 127-722 limits assumed): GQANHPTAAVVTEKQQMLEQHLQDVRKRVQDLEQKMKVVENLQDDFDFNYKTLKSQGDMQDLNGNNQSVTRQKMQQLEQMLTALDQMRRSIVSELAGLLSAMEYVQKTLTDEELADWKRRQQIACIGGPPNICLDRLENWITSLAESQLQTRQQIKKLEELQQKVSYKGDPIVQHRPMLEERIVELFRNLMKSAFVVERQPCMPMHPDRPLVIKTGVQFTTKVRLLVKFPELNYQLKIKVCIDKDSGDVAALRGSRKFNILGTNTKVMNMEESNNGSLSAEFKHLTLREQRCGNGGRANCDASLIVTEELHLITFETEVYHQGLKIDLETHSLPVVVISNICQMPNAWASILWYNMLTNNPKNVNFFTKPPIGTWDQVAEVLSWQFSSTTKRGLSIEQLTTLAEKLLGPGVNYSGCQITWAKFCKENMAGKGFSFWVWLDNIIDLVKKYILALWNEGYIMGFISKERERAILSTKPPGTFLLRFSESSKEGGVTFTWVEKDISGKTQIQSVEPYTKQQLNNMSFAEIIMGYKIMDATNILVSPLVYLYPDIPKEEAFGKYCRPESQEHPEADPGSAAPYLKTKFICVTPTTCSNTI

Regarding `Cc1ccc2onc(C(=O)N3CC[C@H]4CC[C@@H](C(=O)NCCOc5cc(C(C(=O)N6C[C@H](O)C[C@H]6C(=O)N[C@H](C)c6ccc(-c7scnc7C)cc6)C(C)C)on5)N4C(=O)[C@@H](NC(=O)c4ccc5ccc(C(F)(F)P(=O)(O)O)cc5c4)C3)c2c1` (stereo partly drawn) [Compound 32, (difluoro(7-(((5S,8S,10aR)-8-((2-((5-(1-((2S,4R)-4-hydroxy-2-(((R)-1-(4-(4-methylthiazol-5-yl)phenyl)ethyl)carbamoyl)pyrrolidin-1-yl)-3-methyl-1-oxobutan-2-yl)isoxazol-3-yl)oxy)ethyl)carbamoyl)-3-(5-methylbenzo[d]isoxazole-3-carbonyl)-6-oxodecahydropyrrolo[1,2-a][1,5]diazocin-5-yl)carbamoyl)naphthalen-2-yl)methyl)phosphonic acid], the pIC50 on STAT3 (recombinant STAT3 25 nM, probe 5-FAM-GpYLPQTV-NH2 2 nM, 45 min, room temperature, read-out: STAT3 FP IC50) was 5.00 to 6.00; at STAT6 (recombinant STAT6(W123-T658) 250 nM, probe 5-FAM-Ap[…]-NH2 2 nM, 45 min, room temperature, read-out: STAT6 FP IC50), 5.52 to 6.52; on pSTAT6 (compound 3 hrs, then 1 ng/mL IL-4 for 10 min, pY641-STAT6, read-out: pSTAT6 IC50) it was below 5.52.
Turning to `Cc1ccc2[nH]nc(C(=O)N3CC[C@H]4CC[C@@H](C(=O)N(C)CCCCCCC#Cc5cccc6c5CN(C5CCC(=O)NC5=O)C6=O)N4C(=O)[C@@H](NC(=O)c4ccc5ccc(C(F)P(=O)(O)O)cc5c4)C3)c2c1` (stereo partly drawn) [Compound 14, ((7-(((5S,8S,10aR)-8-((8-(2-(2,6-dioxopiperidin-3-yl)-1-oxoisoindolin-4-yl)oct-7-yn-1-yl)(methyl)carbamoyl)-3-(5-methyl-1H-indazole-3-carbonyl)-6-oxodecahydropyrrolo[1,2-a][1,5]diazocin-5-yl)carbamoyl)naphthalen-2-yl)fluoromethyl)phosphonic acid], the pIC50 against STAT3 was below 5.00; at STAT6 it was 5.52 to 6.52; on pSTAT6 (read-out: pSTAT6 IC50, compound 3 hrs, then 1 ng/mL IL-4 for 10 min, pY641-STAT6), below 5.52.
